System: burn eschar (deep thermal burn)
Experiment: In vivo eschar debridement test in swine model (radiant-heat deep thermal burn, 4-hour application, visual assessment score)
Set-up: species or system young domestic pig (Landrace×Large Whites juvenile swine)
Source text: This study assessed the eschar-debriding activity of the debriding composition in vivo using an animal model of young domestic pig (Landrace×Large Whites juvenile swine) 22 Kg±2 Kg, bearing deep thermal burn. […] In order to create test conditions burns were inflicted in fully anesthetized animals, in a dorsal test area, by a radiant heat device creating wounds of about 4.5×4.5 cm^2. The treatment consisted of a 4-hour application of the debriding composition following by cleansing of the wound. Visual evaluation of the wound and extent of debridement is carried out by photographical documentation of the burn was performed before and after the debriding treatment. The results were expressed using debridement visual assessment scoring (VAS) scale of 1 to 5 as follows:
The model was a radiant-heat thermal burn in an anesthetized young domestic pig. In order to create test conditions which are in accordance with the therapeutic use of the test article, deep dermal and full thickness burns were inflicted in all animals by applying a radiant heat device to the back to cover an area of approximately 3% TBSA (4.5×4.5 cm) for each burn. A gross evaluation of the debriding activity of the test article (the amount of eschar removed) was assessed and photographically documented. […]

O=[N+]([O-])[O-].[Ag+] [AgNO3]
debridement by semi solid cake of debriding agent reconstituted with hydrating gel plus antiseptic (AgNO3 (0.5%), FIG. 1): performs debridement | difference in morphology of debrided burns between areas treated with debriding mixture comprising the antiseptic (FIG. 1, areas 10-12 (Silverol™) versus 14-15 (AgNO3), after cleaning dissolved eschar): No significant difference

Reference: patent US20090010910A1, “COMPOSITIONS AND METHODS FOR DERMATOLOGICAL WOUND HEALING” (MEDIWOUND LTD., priority 2004, published 2009)
